Our source for the EC50 values is patent US20110053953A1, “AZA-Isoindolones and Their Use as Metabotropic Glutamate Receptor Potentiators - 613” (priority 2007, published 2011).

The experiment deals with T1, human mGluR2 (Homo sapiens, UniProt Q14416).
T1 construct: If the GTPgammaS assay was used: nothing is fused
T1 sequence (Q14416 19-819 limits assumed): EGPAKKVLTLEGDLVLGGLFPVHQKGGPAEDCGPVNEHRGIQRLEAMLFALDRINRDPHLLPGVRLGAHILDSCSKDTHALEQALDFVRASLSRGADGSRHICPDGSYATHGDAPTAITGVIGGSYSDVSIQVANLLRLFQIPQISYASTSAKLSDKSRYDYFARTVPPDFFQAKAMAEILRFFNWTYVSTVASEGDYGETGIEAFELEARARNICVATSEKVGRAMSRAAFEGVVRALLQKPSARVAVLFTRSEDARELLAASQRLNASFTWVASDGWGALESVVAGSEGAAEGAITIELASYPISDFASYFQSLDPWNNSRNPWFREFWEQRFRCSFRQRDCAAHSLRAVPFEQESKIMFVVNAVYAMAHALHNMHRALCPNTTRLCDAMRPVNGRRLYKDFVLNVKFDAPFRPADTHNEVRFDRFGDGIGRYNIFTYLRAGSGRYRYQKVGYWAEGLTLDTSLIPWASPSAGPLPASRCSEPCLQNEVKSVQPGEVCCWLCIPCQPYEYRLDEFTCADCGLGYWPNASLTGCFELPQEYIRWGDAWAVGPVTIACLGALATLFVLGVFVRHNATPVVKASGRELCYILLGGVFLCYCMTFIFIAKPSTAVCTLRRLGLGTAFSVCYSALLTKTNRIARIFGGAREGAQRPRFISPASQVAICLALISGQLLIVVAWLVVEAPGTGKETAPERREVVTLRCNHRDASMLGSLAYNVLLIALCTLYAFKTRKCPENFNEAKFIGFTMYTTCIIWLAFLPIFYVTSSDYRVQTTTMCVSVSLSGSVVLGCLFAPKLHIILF
The experiment in a line: mGluR2 potentiator functional assays (FLIPR calcium mobilization or [35S]-GTPγS binding; not stated which). The class given is cell-based. As to conditions: active in assays described herein; allosteric activator (potentiator) activity at mGluR2, assay not specified. An excerpt: The pharmacological properties of the compounds of the invention can be analyzed using standard assays for functional activity. Examples of glutamate receptor assays are well known in the art as described in, for example, Aramori et al., 1992, Neuron, 8:757; Tanabe et al., 1992, Neuron, 8:169; Miller et al., 1995, J. Neuroscience, 15:6103; Balazs, et al., 1997, J. Neurochemistry, 1997, 69:151. The methodology described in these publications is incorporated herein by reference. Conveniently, the compounds of the invention can be studied by means of an assay that measures the mobilization of intracellular calcium, [Ca^2+]i in cells expressing mGluR2.
Fluorometric Imaging Plate Reader (FLIPR) analysis was used to detect allosteric activators of mGluR2 via calcium mobilization. A clonal HEK 293 cell line expressing a chimeric mGluR2/CaR construct comprising the extracellular and transmembrane domains of human mGluR2 and the intracellular domain of the human calcium receptor, fused to the promiscuous chimeric protein G[…]qi5 was used. […]
FLIPR experiments were done using a laser setting of 0.8 W and a 0.4 second CCD camera shutter speed. […] An addition of test compound (0.01 μM to 30 μM in duplicate) was made after 10 seconds of baseline fluorescent readings were recorded on FLIPR. Fluorescent signals were then recorded for an additional 75 seconds at which point a second addition of DCG-IV (0.2 μM) was made and fluorescent signals were recorded for an additional 65 seconds. Fluorescent signals were measured as the peak height of the response within the sample period. Data was analyzed using Assay Explorer, and EC50 and Emax values (relative to maximum DCG-IV effect) were calculated using a four parameter logistic equation.
A [^35S]-GTPγS binding assay was used to functionally assay mGluR2 receptor activation. The allosteric activator activity of compounds at the human mGluR2 receptor were measured using a [^35S]-GTPγS binding assay with membranes prepared from CHO cells which stably express the human mGluR2. […]
On the technique in general: Calcium assays in cells follow changes in intracellular calcium, usually with a dye or a luminescent sensor.
A word on the EC50: it is the concentration that produces a half-maximal response. For `Cc1nc(-c2cccc(N(S(C)(=O)=O)S(C)(=O)=O)c2)cc2c1C(=O)N(Cc1ccc(OC(F)(F)F)cc1)C2` [Compound 9, 6-(3-dimethylsulphanomidephenyl)-4-methyl-2-[4-(trifluoromethoxy)benzyl]-1,2-dihydro-3H-pyrrolo[3,4-c]pyridin-3-one], the EC50 worked out at 160 nM.

Take `Cc1nc(-c2cccc(NS(C)(=O)=O)c2)cc2c1C(=O)N(Cc1ccc(OC(F)(F)F)cc1)C2` [Compound 13, 6-(3-methylsulphanomidephenyl)-4-methyl-2-[4-(trifluoromethoxy)benzyl]-1,2-dihydro-3H-pyrrolo[3,4-c]pyridin-3-one]: the EC50 was determined as 1330 nM.

As for `Cc1nc(-c2cccc(NC=O)c2)cc2c1C(=O)N(CC1CC1)C2` [Compound 20, {3-[2-(cyclopropylmethyl)-4-methyl-3-oxo-2,3-dihydro-1H-pyrrolo[3,4-c]pyridin-6-yl]phenyl}formamide], the EC50 came to 670 nM.
